Experimental data taken from ChEMBL document CHEMBL3044945, “Synthesis of 1,3,5-trisubstituted pyrazoline nucleus containing compounds and screening for antimicrobial activity” (2012).
≈ marks a conversion by molar mass, not a printed value.

Assays:
Format in all cases: functional
[1] = tested on: Aspergillus niger; test: Antifungal activity against Aspergillus niger MTCC 2546 at 500 ug/ml after 48 hr by cup-plate method; conditions: MTCC 2546, 48 h, read-out: DIZ
[2] = tested on: Pseudomonas aeruginosa; test: Antibacterial activity against Pseudomonas aeruginosa MTCC 424 after 24 to 48 hr by tube dilution method
[3] = tested on: Micrococcus luteus; test: Antibacterial activity against Micrococcus luteus MTCC 1538 at 250 ug/ml after 48 hr by cup-plate method; conditions: MTCC 1538, 48 h, read-out: DIZ
[4] = tested on: Penicillium chrysogenum; test: Antifungal activity against Penicillium chrysogenum MTCC 161 at 250 ug/ml after 48 hr by cup-plate method; conditions: MTCC 161, 48 h, read-out: DIZ
[5] = tested on: Aspergillus niger; test: Antifungal activity against Aspergillus niger MTCC 2546 at 1250 ug/ml after 48 hr by cup-plate method; conditions: MTCC 2546, 48 h, read-out: DIZ
[6] = tested on: Escherichia coli; test: Antibacterial activity against Escherichia coli MTCC 1573 at 750 ug/ml after 48 hr by cup-plate method; conditions: MTCC 1573, 48 h, read-out: DIZ
[7] = tested on: Bacillus pumilus; test: Antibacterial activity against Bacillus pumilus MTCC 1456 at 250 ug/ml after 48 hr by cup-plate method; conditions: MTCC 1456, 48 h, read-out: DIZ
[8] = tested on: Aspergillus niger; test: Antifungal activity against Aspergillus niger MTCC 2546 at 100 ug/ml after 48 hr by cup-plate method; conditions: MTCC 2546, 48 h, read-out: DIZ
[9] = tested on: Bacillus subtilis; test: Antibacterial activity against Bacillus subtilis MTCC 441 at 1250 ug/ml after 48 hr by cup-plate method; conditions: MTCC 441, 48 h, read-out: DIZ
[10] = tested on: Bacillus pumilus; test: Antibacterial activity against Bacillus pumilus MTCC 1456 at 1250 ug/ml after 48 hr by cup-plate method; conditions: MTCC 1456, 48 h, read-out: DIZ
[11] = tested on: Micrococcus luteus; test: Antibacterial activity against Micrococcus luteus MTCC 1538 after 24 to 48 hr by tube dilution method
[12] = tested on: Staphylococcus aureus; test: Antibacterial activity against Staphylococcus aureus MTCC 1430 after 24 to 48 hr by tube dilution method
[13] = tested on: Escherichia coli; test: Antibacterial activity against Escherichia coli MTCC 1573 at 250 ug/ml after 48 hr by cup-plate method; conditions: MTCC 1573, 48 h, read-out: DIZ
[14] = tested on: Pseudomonas aeruginosa; test: Antibacterial activity against Pseudomonas aeruginosa MTCC 424 at 750 ug/ml after 48 hr by cup-plate method; conditions: MTCC 424, 48 h, read-out: DIZ
[15] = tested on: Aspergillus niger; test: Antifungal activity against Aspergillus niger MTCC 2546 at 250 ug/ml after 48 hr by cup-plate method; conditions: MTCC 2546, 48 h, read-out: DIZ
[16] = tested on: Pseudomonas fluorescens; test: Antibacterial activity against Pseudomonas fluorescens MTCC 2421 at 1250 ug/ml after 48 hr by cup-plate method; conditions: MTCC 2421, 48 h, read-out: DIZ
[17] = tested on: Staphylococcus aureus; test: Antibacterial activity against Staphylococcus aureus MTCC 1430 at 500 ug/ml after 48 hr by cup-plate method; conditions: MTCC 1430, 48 h, read-out: DIZ
[18] = tested on: Escherichia coli; test: Antibacterial activity against Escherichia coli MTCC 1573 at 1250 ug/ml after 48 hr by cup-plate method; conditions: MTCC 1573, 48 h, read-out: DIZ
[19] = tested on: Penicillium chrysogenum; test: Antifungal activity against Penicillium chrysogenum MTCC 161 at 1250 ug/ml after 48 hr by cup-plate method; conditions: MTCC 161, 48 h, read-out: DIZ
[20] = tested on: Micrococcus luteus; test: Antibacterial activity against Micrococcus luteus MTCC 1538 at 750 ug/ml after 48 hr by cup-plate method; conditions: MTCC 1538, 48 h, read-out: DIZ
[21] = tested on: Aspergillus niger; test: Antifungal activity against Aspergillus niger MTCC 2546 after 24 to 48 hr by tube dilution method
[22] = tested on: Penicillium chrysogenum; test: Antifungal activity against Penicillium chrysogenum MTCC 161 at 1000 ug/ml after 48 hr by cup-plate method; conditions: MTCC 161, 48 h, read-out: DIZ
[23] = tested on: Penicillium chrysogenum; test: Antifungal activity against Penicillium chrysogenum MTCC 161 after 24 to 48 hr by tube dilution method
[24] = tested on: Bacillus subtilis; test: Antibacterial activity against Bacillus subtilis MTCC 441 at 500 ug/ml after 48 hr by cup-plate method; conditions: MTCC 441, 48 h, read-out: DIZ
[25] = tested on: Pseudomonas fluorescens; test: Antibacterial activity against Pseudomonas fluorescens MTCC 2421 at 1000 ug/ml after 48 hr by cup-plate method; conditions: MTCC 2421, 48 h, read-out: DIZ
[26] = tested on: Penicillium chrysogenum; test: Antifungal activity against Penicillium chrysogenum MTCC 161 at 500 ug/ml after 48 hr by cup-plate method; conditions: MTCC 161, 48 h, read-out: DIZ
[27] = tested on: Escherichia coli; test: Antibacterial activity against Escherichia coli MTCC 1573 after 24 to 48 hr by tube dilution method
[28] = tested on: Bacillus pumilus; test: Antibacterial activity against Bacillus pumilus MTCC 1456 at 500 ug/ml after 48 hr by cup-plate method; conditions: MTCC 1456, 48 h, read-out: DIZ
[29] = tested on: Penicillium chrysogenum; test: Antifungal activity against Penicillium chrysogenum MTCC 161 at 100 ug/ml after 48 hr by cup-plate method; conditions: MTCC 161, 48 h, read-out: DIZ
[30] = tested on: Pseudomonas fluorescens; test: Antibacterial activity against Pseudomonas fluorescens MTCC 2421 at 100 ug/ml after 48 hr by cup-plate method; conditions: MTCC 2421, 48 h, read-out: DIZ
[31] = tested on: Bacillus pumilus; test: Antibacterial activity against Bacillus pumilus MTCC 1456 at 750 ug/ml after 48 hr by cup-plate method; conditions: MTCC 1456, 48 h, read-out: DIZ
[32] = tested on: Bacillus pumilus; test: Antibacterial activity against Bacillus pumilus MTCC 1456 at 1000 ug/ml after 48 hr by cup-plate method; conditions: MTCC 1456, 48 h, read-out: DIZ
[33] = tested on: Bacillus pumilus; test: Antibacterial activity against Bacillus pumilus MTCC 1456 after 24 to 48 hr by tube dilution method
[34] = tested on: Penicillium chrysogenum; test: Antifungal activity against Penicillium chrysogenum MTCC 161 at 750 ug/ml after 48 hr by cup-plate method; conditions: MTCC 161, 48 h, read-out: DIZ
[35] = tested on: Micrococcus luteus; test: Antibacterial activity against Micrococcus luteus MTCC 1538 at 1000 ug/ml after 48 hr by cup-plate method; conditions: MTCC 1538, 48 h, read-out: DIZ
[36] = tested on: Escherichia coli; test: Antibacterial activity against Escherichia coli MTCC 1573 at 1000 ug/ml after 48 hr by cup-plate method; conditions: MTCC 1573, 48 h, read-out: DIZ
[37] = tested on: Micrococcus luteus; test: Antibacterial activity against Micrococcus luteus MTCC 1538 at 1250 ug/ml after 48 hr by cup-plate method; conditions: MTCC 1538, 48 h, read-out: DIZ
[38] = tested on: Staphylococcus aureus; test: Antibacterial activity against Staphylococcus aureus MTCC 1430 at 750 ug/ml after 48 hr by cup-plate method; conditions: MTCC 1430, 48 h, read-out: DIZ
[39] = tested on: Pseudomonas fluorescens; test: Antibacterial activity against Pseudomonas fluorescens MTCC 2421 at 250 ug/ml after 48 hr by cup-plate method; conditions: MTCC 2421, 48 h, read-out: DIZ
[40] = tested on: Pseudomonas aeruginosa; test: Antibacterial activity against Pseudomonas aeruginosa MTCC 424 at 500 ug/ml after 48 hr by cup-plate method; conditions: MTCC 424, 48 h, read-out: DIZ
[41] = tested on: Aspergillus niger; test: Antifungal activity against Aspergillus niger MTCC 2546 at 1000 ug/ml after 48 hr by cup-plate method; conditions: MTCC 2546, 48 h, read-out: DIZ
[42] = tested on: Micrococcus luteus; test: Antibacterial activity against Micrococcus luteus MTCC 1538 at 500 ug/ml after 48 hr by cup-plate method; conditions: MTCC 1538, 48 h, read-out: DIZ
[43] = tested on: Bacillus subtilis; test: Antibacterial activity against Bacillus subtilis MTCC 441 after 24 to 48 hr by tube dilution method
[44] = tested on: Pseudomonas fluorescens; test: Antibacterial activity against Pseudomonas fluorescens MTCC 2421 at 750 ug/ml after 48 hr by cup-plate method; conditions: MTCC 2421, 48 h, read-out: DIZ

Work on `O=[N+]([O-])c1ccc(C2CC(c3cccc4ccccc34)=NN2c2ccc([N+](=O)[O-])cc2)cc1` (centres undefined) yielded a zone of inhibition at 500 µg/mL [1] of 14 mm, an MIC [2] of 30 µg/mL (≈ 68.4 µM) and a zone of inhibition at 250 µg/mL [3] of 9 mm. It also gave a zone of inhibition at 250 µg/mL [4] of 10 mm, a zone of inhibition at 1250 µg/mL [5] of 25 mm and a zone of inhibition at 750 µg/mL [6] of 13 mm. For the same compound, the zone of inhibition at 250 µg/mL [7] was 8 mm, the zone of inhibition at 100 µg/mL [8] was 12 mm and the zone of inhibition at 1250 µg/mL [9] was 19 mm. It also gave a zone of inhibition at 1250 µg/mL [10] of 20 mm, an MIC [11] of 150 µg/mL (≈ 342 µM) and an MIC [12] of 200 µg/mL (≈ 456 µM). For the same compound, the zone of inhibition at 250 µg/mL [13] was 11 mm, the zone of inhibition at 750 µg/mL [14] was 13 mm and the zone of inhibition at 250 µg/mL [15] was 13 mm. The zone of inhibition at 1250 µg/mL [16] was 21 mm, the zone of inhibition at 500 µg/mL [17] was 10 mm and the zone of inhibition at 1250 µg/mL [18] was 17 mm. For the same compound, the zone of inhibition at 1250 µg/mL [19] was 17 mm, the zone of inhibition at 750 µg/mL [20] was 12 mm and the MIC [21] was 30 µg/mL (≈ 68.4 µM). For the same compound, the zone of inhibition at 1000 µg/mL [22] was 15 mm, the MIC [23] was 50 µg/mL (≈ 114 µM) and the zone of inhibition at 500 µg/mL [24] was 13 mm. For the same compound, the zone of inhibition at 1000 µg/mL [25] was 18 mm, the zone of inhibition at 500 µg/mL [26] was 12 mm and the MIC [27] was 50 µg/mL (≈ 114 µM). It also gave a zone of inhibition at 500 µg/mL [28] of 10 mm, a zone of inhibition at 100 µg/mL [29] of 9 mm and a zone of inhibition at 100 µg/mL [30] of 9 mm. The zone of inhibition at 750 µg/mL [31] was 15 mm, the zone of inhibition at 1000 µg/mL [32] was 18 mm and the MIC [33] was 50 µg/mL (≈ 114 µM). The zone of inhibition at 750 µg/mL [34] was 14 mm, the zone of inhibition at 1000 µg/mL [35] was 13 mm and the zone of inhibition at 1000 µg/mL [36] was 15 mm. For the same compound, the zone of inhibition at 1250 µg/mL [37] was 15 mm, the zone of inhibition at 750 µg/mL [38] was 11 mm and the zone of inhibition at 250 µg/mL [39] was 10 mm. For the same compound, the zone of inhibition at 500 µg/mL [40] was 11 mm, the zone of inhibition at 1000 µg/mL [41] was 20 mm and the zone of inhibition at 500 µg/mL [42] was 11 mm. It also gave an MIC [43] of 50 µg/mL (≈ 114 µM) and a zone of inhibition at 750 µg/mL [44] of 14 mm.
